In publication PMC3537913 (Clinical cancer research : an official journal of the …, 2012):
Structures can show the parent of a compound that is named as a salt.

What was measured:
[1] = Sorafenib first-dose pharmacokinetics in patients; format: in vivo, human; settings: for CL/F (apparent oral clearance): first dose (day 1); for Ka: first dose; for Cmax / Tmax / half-life: human, plasma, po
[2] = tested on: circulating endothelial cells (CECs); test: Six-color flow cytometry of blood; format: in vivo, human; settings: day 21, p = 0.01
[3] = Sorafenib and sorafenib N-oxide steady-state plasma concentrations, course 1; format: in vivo, human; settings: for concentration at 7 day / concentration at 13 day / concentration at 21 day: human, plasma, oral
[4] = single-agent sorafenib, mean; cited from earlier work
[5] = pediatric phase I single agent study, cited from earlier work
refractory solid tumors = settings: cited from earlier work
[6] = human, in vivo, po
clinical = settings: human, in vivo, po, 50 mg/m2
[7] = in vivo, cited from earlier work
[8] = once daily by mouth, in the combination
[9] = sorafenib 90 mg/m^2 oral, n 11, median (range)
[10] = sorafenib 110 mg/m^2 oral, n 4, median (range)
[11] = sorafenib 90 mg/m^2 twice daily, n 13, median (range)
[12] = sorafenib 110 mg/m^2 twice daily, n 4, median (range)

CNC(=O)c1cc(Oc2ccc(NC(=O)Nc3ccc(Cl)c(C(F)(F)F)c3)cc2)ccn1 [sorafenib, Sorafenib tosylate]
CL/F (apparent oral clearance) [1, 9]: 44 mL/min/m^2 | CL/F (apparent oral clearance) [1, 10]: 39 mL/min/m^2 | Ka [1, 9]: 0.10 (0.038 – 0.72) h^−1 | Ka [1, 10]: 0.093 (0.080 – 0.15) h^−1 | Cmax ([1]; 90 mg/m2): 1100 ng/mL | Tmax ([1]; 90 mg/m2): 8.7 h | half-life ([1]; 90 mg/m2): 330 min | Cmax ([1]; 110 mg/m2): 1600 ng/mL | Tmax ([1]; 110 mg/m2): 11 h | half-life ([1]; 110 mg/m2): 600 min | correlation of sorafenib steady-state concentrations with CECs [2]: inversely correlated | concentration at 7 day ([3]; 90 mg/m^2 twice daily): 3500 ng/mL | concentration at 13 day ([3]; 90 mg/m^2 twice daily): 2500 ng/mL | concentration at 21 day ([3]; 90 mg/m^2 twice daily): 4800 ng/mL | concentration at 7 day ([3]; 110 mg/m^2 twice daily): 3000 ng/mL | concentration at 13 day ([3]; 110 mg/m^2 twice daily): 2100 ng/mL | concentration at 21 day ([3]; 110 mg/m^2 twice daily): 1600 ng/mL | metabolic conversion to sorafenib N-oxide, adult patients [4]: < 10% | metabolic conversion to sorafenib N-oxide, children with AML [4]: 33% | maximum tolerated dose (MTD) ([5]; twice daily): 200 mg/m^2 | Grade 3 DLTs [5]: elevated lipase, hyponatremia, hand-foot syndrome (HFS), rash, hypertension, and elevated ALT | objective responses [5]: No objective responses were observed

bevacizumab: VEGF-specific recombinant, humanized monoclonal antibody
dose-limiting toxicities (refractory solid tumors; in vivo): no dose-limiting toxicities (DLTs) were observed | objective responses (refractory solid tumors; pediatric phase I, single agent): No objective responses were observed

O=P1(N(CCCl)CCCl)NCCCO1 (stereo not shown) [cyclophosphamide, Cyclophosphamide]
cyclophosphamide absorption rate constant [6]: 0.17 h⁻¹ | cyclophosphamide apparent volume of distribution ([6]; 50 mg/m2): 2.28 L/m^2 | AUC(0-inf) (clinical): 62.5 µM·h | clearance after intravenous administration in children ([7]; iv): 2.9-4.23 L/h/m^2 | mean apparent oral clearance in adults ([7]; po): 6.18 L/h | recommended phase II dose, cyclophosphamide [8]: 50 mg/m^2 | published mean AUC at 600 mg/m^2 relative to median AUC of this study (12-fold higher oral dosage, ref 34 versus this study): ~ 11 times | BSA normalized apparent oral clearance in adults (assuming average adult body surface area of 1.73 m^2, from ref 33): 3.57 L/h/m^2

CNC(=O)c1cc(Oc2ccc(NC(=O)Nc3ccc(Cl)c(C(F)(F)F)c3)cc2)cc[n+]1[O-] [sorafenib N-oxide]
Sorafenib N-oxide Ctrough Day 7 [3, 11]: 0.50 (0.11 – 4.5) mg/L | Sorafenib N-oxide Ctrough Day 13 [3, 11]: 0.54 (0.17 – 3.4) mg/L | Sorafenib N-oxide Ctrough Day 7 [3, 12]: 0.57 (0.37 – 1.5) mg/L | Sorafenib N-oxide Ctrough Day 13 [3, 12]: 0.37 (0.33 – 0.92) mg/L | Sorafenib N-oxide Ctrough Day 21 [3, 12]: 0.40 (0.20 – 0.78) mg/L
